# Measured values published in patent publication US11708366B2, “Heteroaryl substituted spiropiperidinyl derivatives and pharmaceutical uses thereof” (Novartis AG, priority 2020, dated 2023).
# pIC50: −log10 of the molar value.
# Target: LTC4S (Homo sapiens (Human), UniProt Q16873)
# Assay: Human whole blood HTRF assay (LTC4 release after calcium ionophore A23187)
# Format: cell-based
# Details: human whole blood HTRF IC50, human whole blood diluted 1:3, 4 h incubation, calcium ionophore A23187 stimulation, LTC4 by HTRF
# Experimental: B. Human Whole Blood HTRF Assay
# LTC4 synthase catalyzes the conversion of Leukotriene A4 (LTA4) to Leukotriene C4 (LTC4) in the presence of reduced glutathione (GSH) as a co-substrate. For testing the inhibition of LTC4S, compounds are prepared for either eight-point or sixteen-point dose response studies in 384-well Labcyte low dead volume (LDV) plates. For eight-point dose response studies, compounds are diluted 1:5 starting at 1 μM concentration in 90% DMSO. […] Compounds are studied in duplicates. Ten wells are filled with 90% DMSO which correspond to the stimulated and unstimulated control wells. […] The morning of the assay, whole blood is collected from three human donors. Donors must be non-smokers and must not have taken NSAIDs within the 48 hours prior to blood collection. The amount of blood collected per donor depends on the amount of compounds to be tested and the dose response format in which they are to be studied (about 8 mL of whole blood for either 22 compounds in 8-point dose response format or 11 compounds in 16-point dose response format). […] 50 μL of diluted blood are then dispensed into each assay plate well with pre-dispensed compounds and DMSO for the stimulated and unstimulated controls using a Thermo Scientific™ Multidrop™ Combi reagent dispenser, and incubated at 37° C. for 4 hours. Calcium ionophore A23187 is used to induce a rapid increase in intracellular levels of Ca^2+. The Ca^2+ functions as a universal second messenger in various immune cells, such as T cells, B cells and mast cells, and is used to induce degranulation and release of eicosanoids, including LTC4, by cells contained in the whole blood samples. […] All but the unstimulated control wells are subsequently stimulated by dispensing 1 μL of the 0.5 mg/mL calcium ionophore suspension using the Thermo Scientific™ Multidrop™ Combi reagent dispenser. Plates are incubated for 15 minutes at 37° C. Plates are then centrifuged at 300 g for 10 minutes at room temperature to pellet blood cells and stop the reaction. […] Plates are sealed and stored at −80° C.
# In order to measure the amount of LTC4 released by cells in the human blood samples during calcium ionophore stimulation, supernatants are analyzed using the Cisbio LTC4 homogeneous time-resolved FRET (HTRF) kit (Cisbio #64LC4PEH). […] Ten serially diluted standard curve solutions are also dispensed in duplicate into each plate as instructed in the protocol. Blank controls and cryptate control wells are also prepared. Then, 5 μL of anti-LTC4-d2 working solution are dispensed into all the wells, but the cryptate control wells. Subsequently, 5 μL of anti-LTC4-Eu3+ cryptate working solution are dispensed into all the wells. Plates are then covered with a lid and incubated at room temperature for one hour with gentle orbital shaking (˜450 rpm). […] HTRF ratios are calculated for each well by dividing the 665 nm intensity by the 620 nm intensity, and multiplying the resulting ratio by 10,000. LTC4 standard curves are interpolated for each plate and used to convert the HTRF ratio readouts into the amount of LTC4 present in each well (in ng/mL). Parametric curve fitting is used to obtain inhibition curves and IC50 values.
row,SMILES,pIC50
1,"O=C1CCCC2(CCN(c3cc(OC4CCOCC4)nn(Cc4ccccc4)c3=O)CC2)N1c1ccc(F)c(F)c1 [Example 15a, 9-(2-benzyl-3-oxo-6-((tetrahydro-2H-pyran-4-yl)oxy)-2,3-dihydropyridazin-4-yl)-1-(3,4-difluorophenyl)-1,9-diazaspiro[5.5]undecan-2-one]",9.00

# Same assay, conditions: human whole blood diluted 1:3, 4 h incubation, calcium ionophore A23187 stimulation, LTC4 by HTRF; read-out: human whole blood HTRF IC50
row,SMILES,pIC50
1,"Nc1nc(C2=CCC(F)(F)CC2)cc(N2CCC3(CCCC(=O)N3c3ccc(F)c(F)c3)CC2)n1 [Example 74, 9-(2-amino-6-(4,4-difluorocyclohex-1-en-1-yl)pyrimidin-4-yl)-1-(3,4-difluorophenyl)-1,9-diazaspiro[5.5]undecan-2-one]",8.40
2,"Nc1nc(N2CCC3(CCCC(=O)N3c3ccc(F)c(F)c3)CC2)c(F)c(-n2cccn2)n1 [Example 59, 9-(2-amino-5-fluoro-6-(1H-pyrazol-1-yl)primidin-4-yl)-1-(3,4-difluorophenyl)-1,9-diazaspiro[5.5]undecan-2-one]",6.19
3,"O=C1CCCC2(CCN(c3cc(-c4ccc(F)cc4)n[nH]c3=O)CC2)N1c1ccc(F)c(F)c1 [Example 11, 1-(3,4-difluorophenyl)-9-(6-(4-fluorophenyl)-3-oxo-2,3-dihydropyridazin-4-yl)-1,9-diazaspiro[5.5]undecane-2-one]",8.22
4,"Nc1nc(OC2CCOCC2)cc(N2CCC3(CC2)C[C@H](F)CC(=O)N3c2ccc(F)c(F)c2)n1 (single isomer, unassigned) [Example 116b, (S)-9-(2-amino-6-((tetrahydro-2H-pyran-4-yl)oxy)pyrimidin-4-yl)-1-(3,4-difluorophenyl)-4-fluoro-1,9-diazaspiro[5.5]undecan-2-one, or (R)-9-(2-amino-6-((tetrahydro-2H-pyran-4-yl)oxy)pyrimidin-4-yl)-1-(3,4-difluorophenyl)-4-fluoro-1,9-diazaspiro[5.5]undecan-2-one]",7.48
5,"Nc1nc(N2CCC3(CCOC(=O)N3c3ccc(F)c(F)c3)CC2)cc(-n2cc(C(F)(F)F)cn2)n1 [Example 115, 9-(2-amino-6-(4-(trifluoromethyl)-1H-pyrazol-1-yl)pyrimidin-4-yl)-1-(3,4-difluorophenyl)-3-oxa-1,9-diazaspiro[5.5]undecan-2-one]",7.55
6,"Nc1nc(N2CCC3(CCCC(=O)N3c3ccc(F)c(F)c3)CC2)c(F)c(N2CCC(O)(C(F)(F)F)CC2)n1 [Example 41, 9-(2-amino-5-fluoro-6-(4-hydroxy-4-(trifluoromethyl)piperidin-1-yl)pyrimidin-4-yl)-1-(3,4-difluorophenyl)-1,9-diazaspiro[5.5]undecan-2-one]",8.30
7,"Nc1nc(OCCO)cc(N2CCC3(CCCC(=O)N3c3ccc(F)c(F)c3)CC2)n1 [Example 94, 9-(2-amino-6-(2-hydroxyethoxy)pyrimidin-4-yl)-1-(3,4-difluorophenyl)-1,9-diazaspiro[5.5]undecan-2-one]",6.08
8,"Nc1nc(O[C@@H]2CCCOC2)cc(N2CCC3(CCCC(=O)N3c3ccc(F)c(F)c3)CC2)n1 [Example 100, (R)-9-(2-amino-6-((tetrahydro-2H-pyran-3-yl)oxy)pyrimidin-4-yl)-1-(3,4-difluorophenyl)-1,9-diazaspiro[5.5]undecan-2-one]",8.70
9,"Nc1nc(OC2CCOCC2)cc(N2CCC3(CCCC(=O)N3c3ccc(F)c(F)c3)CC2)n1 [Example 101, 9-(2-amino-6-((tetrahydro-2H-pyran-4-yl)oxy)pyrimidin-4-yl)-1-(3,4-difluorophenyl)-1,9-diazaspiro[5.5]undecan-2-one]",8.30
10,"O=C1CCCC2(CCN(c3cc(O[C@@H]4COC[C@H]4F)nc(CO)n3)CC2)N1c1ccc(F)c(F)c1 (racemic) [Example 108, rac-1-(3,4-diflurophenyl)-9-(6-(((3R,4R)-4-fluorotetrahydrofuran-3-yl)oxy)-2-(hydroxymethyl)pyrimidin-4-yl)-1,9-diazaspiro[5.5]undecan-2-one]",7.66
